Measured values taken from patent US10221139B2, “Inhibitors of histone demethylases” (Gilead Sciences, Inc., priority 2012, dated 2019).
pIC50: −log10 of the molar value.

Columns and labels:
Format in all cases: biochemical
JARID1C (KDM5C) = target: T1, JARID1C (KDM5C) (Homo sapiens, UniProt P41229); test: Histone lysine demethylase AlphaLISA assay, JARID1C; conditions: substrate H3K4M3B
T1 construct: 2-1560; purchased BPS; host or cells: Bac (baculovirus)
Method: (§1) Example 2: Histone Lysine Demethylase AlphaLISA Assays for IC50 Value Determination
(§2) Assays are performed analogously to the protocol described by Perkin Elmer (Roy et al. Perkin Elmer Technical Note: AlphaLISA #12, April 2011).
(§3) Enzymes are dissolved in enzyme buffer and incubated for 10 min before 5 μL is added to 5 μL 3% DMSO solutions of compounds in enzyme buffer. Incubated for another 10 minutes, before 5 μL substrate solution is added and the reaction mixture is incubated at room temperature for the given period. 10 μL acceptor beads, suspended at given dilutions in Epigenetic Buffer (Perkin Elmer AL008) from stock, are added and the suspension is incubated 60 minutes in the dark at room temperature, before 10 μL suspension (at the given dilutions in Epigenetic Buffer) of streptavidin donor beads (Perkin Elmer 6760002) in Epigenetic Buffer is added. After incubation at room temperature in the dark the plates are read. Reaction conditions are seen in Table 2b.

JMJD2A (KDM4A) = target: T2, JMJD2A (KDM4A) (Homo sapiens, UniProt O75164); test: Histone lysine demethylase AlphaLISA assay, JMJD2A; conditions: substrate BK9M3
T2 construct: 1-350; purchased BPS, Bioscience, US; host or cells: E. coli
T2 sequence (O75164 1-350): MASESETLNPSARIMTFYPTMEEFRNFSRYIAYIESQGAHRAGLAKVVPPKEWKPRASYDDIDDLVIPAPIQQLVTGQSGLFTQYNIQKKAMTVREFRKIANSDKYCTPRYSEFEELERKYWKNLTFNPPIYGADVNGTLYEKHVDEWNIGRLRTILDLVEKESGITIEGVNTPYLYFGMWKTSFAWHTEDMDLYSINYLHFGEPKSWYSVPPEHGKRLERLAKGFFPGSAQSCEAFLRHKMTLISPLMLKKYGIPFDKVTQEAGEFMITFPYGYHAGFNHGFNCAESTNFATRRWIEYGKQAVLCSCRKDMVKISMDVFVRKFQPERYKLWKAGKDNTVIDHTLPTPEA
Method: as §1, §2, §3

UTX (KDM6A) = target: T3, UTX (KDM6A) (Homo sapiens, UniProt O15550); test: Histone lysine demethylase AlphaLISA assay, UTX; conditions: substrate BK27M3
T3 construct: 919-1401; host or cells: E. coli
Method in brief: (§4)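 IC50 values come from an AlphaLISA signal: acceptor beads incubated 60 min in the dark, then streptavidin donor beads, both at room temperature. Beforehand, enzyme and compound were preincubated 10 min and the substrate reaction ran at room temperature.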

JMJD2B (KDM4B) = target: T4, JMJD2B (KDM4B) (Homo sapiens, UniProt O94953); test: Histone lysine demethylase AlphaLISA assay, JMJD2B; conditions: substrate BK9M3, read-out: JMUD2B IC50
T4 construct: 2-500; purchased BPS; host or cells: Bac (baculovirus)
T4 sequence (O94953 2-500): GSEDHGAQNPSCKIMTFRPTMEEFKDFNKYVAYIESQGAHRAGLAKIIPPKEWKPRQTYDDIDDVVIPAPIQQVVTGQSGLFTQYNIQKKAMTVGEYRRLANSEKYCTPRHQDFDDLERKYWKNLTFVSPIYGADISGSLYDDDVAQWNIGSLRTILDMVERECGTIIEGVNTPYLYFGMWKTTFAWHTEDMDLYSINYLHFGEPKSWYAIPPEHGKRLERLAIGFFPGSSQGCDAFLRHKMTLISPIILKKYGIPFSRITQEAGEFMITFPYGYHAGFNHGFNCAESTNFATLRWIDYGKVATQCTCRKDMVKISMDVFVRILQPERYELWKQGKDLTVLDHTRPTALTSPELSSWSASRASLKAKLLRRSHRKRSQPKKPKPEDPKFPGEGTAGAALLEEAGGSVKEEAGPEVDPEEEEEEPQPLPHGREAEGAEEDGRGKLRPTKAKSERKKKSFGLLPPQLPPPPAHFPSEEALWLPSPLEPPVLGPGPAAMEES
Method: as §1, §2, §3

GASC1 (KDM4C, JMJD2C) = target: T5, GASC1 (KDM4C, JMJD2C) (Homo sapiens, UniProt Q9H3R0); test: Histone lysine demethylase AlphaLISA assay, GASC1; conditions: substrate BK9M3
T5 construct: 1-349; host or cells: E. coli
T5 sequence (Q9H3R0 1-349): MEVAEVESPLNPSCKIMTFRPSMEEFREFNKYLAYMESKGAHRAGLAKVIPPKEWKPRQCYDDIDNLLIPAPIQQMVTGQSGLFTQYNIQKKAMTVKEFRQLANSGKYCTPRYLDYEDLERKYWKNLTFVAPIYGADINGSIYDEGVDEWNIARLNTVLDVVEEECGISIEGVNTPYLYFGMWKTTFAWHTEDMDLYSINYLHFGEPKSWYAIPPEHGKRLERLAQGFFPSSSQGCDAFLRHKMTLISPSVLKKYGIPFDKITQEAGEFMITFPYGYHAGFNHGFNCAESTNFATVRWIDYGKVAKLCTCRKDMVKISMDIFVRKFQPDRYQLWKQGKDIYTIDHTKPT
Method in brief: as §4

PLU1 (KDM5B) = target: T6, PLU1 (KDM5B) (Homo sapiens, UniProt Q9UGL1); test: Histone lysine demethylase AlphaLISA assay, PLU1; conditions: substrate H3K4M3B
T6 construct: 1-809; host or cells: E. coli
T6 sequence (Q9UGL1 1-809): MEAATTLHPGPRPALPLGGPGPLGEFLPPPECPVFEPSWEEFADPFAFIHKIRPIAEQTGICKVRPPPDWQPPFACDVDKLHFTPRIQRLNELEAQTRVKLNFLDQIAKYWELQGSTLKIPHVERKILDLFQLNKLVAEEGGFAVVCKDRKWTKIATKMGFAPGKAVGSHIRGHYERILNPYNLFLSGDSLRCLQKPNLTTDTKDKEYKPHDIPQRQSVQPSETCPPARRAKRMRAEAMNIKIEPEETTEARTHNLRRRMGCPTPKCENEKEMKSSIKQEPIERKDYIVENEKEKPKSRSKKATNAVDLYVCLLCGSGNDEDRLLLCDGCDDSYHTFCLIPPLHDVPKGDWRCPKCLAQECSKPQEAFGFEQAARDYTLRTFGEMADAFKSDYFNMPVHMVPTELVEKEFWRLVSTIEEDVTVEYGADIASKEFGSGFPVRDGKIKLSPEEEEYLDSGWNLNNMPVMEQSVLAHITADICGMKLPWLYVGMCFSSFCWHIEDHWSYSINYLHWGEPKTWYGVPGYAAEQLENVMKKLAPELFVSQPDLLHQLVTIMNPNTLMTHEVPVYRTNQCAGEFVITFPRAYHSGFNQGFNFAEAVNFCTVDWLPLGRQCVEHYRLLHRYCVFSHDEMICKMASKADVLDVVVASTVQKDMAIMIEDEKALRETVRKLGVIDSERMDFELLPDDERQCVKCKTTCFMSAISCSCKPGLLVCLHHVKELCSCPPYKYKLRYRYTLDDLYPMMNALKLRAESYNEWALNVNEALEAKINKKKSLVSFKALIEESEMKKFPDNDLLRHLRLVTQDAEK
Method in brief: as §4

JMJD3 (KDM6B) = target: T7, JMJD3 (KDM6B) (Homo sapiens, UniProt O15054); test: Histone lysine demethylase AlphaLISA assay, JMJD3; conditions: substrate BK27M3
T7 construct: 1043-end; purchased BPS; host or cells: Bac (baculovirus)
Method: as §1, §2, §3

PHF8 (KDM7) = target: T8, PHF8 (KDM7) (Homo sapiens, UniProt Q9UPP1); test: Histone lysine demethylase AlphaLISA assay, PHF8; conditions: substrate BK9M2
T8 construct: KDM7 (PHF8); BRIC; 1-1322; Bac
Method: as §1, §2, §3

FBXL10 (KDM2B) = target: T9, FBXL10 (KDM2B) (Homo sapiens, UniProt Q8NHM5); test: Histone lysine demethylase AlphaLISA assay, FBXL10; conditions: substrate BH3K36M2
T9 construct: 1-650; purchased BPS, Bioscience, US; host or cells: Bac (baculovirus)
T9 sequence (Q8NHM5 1-650): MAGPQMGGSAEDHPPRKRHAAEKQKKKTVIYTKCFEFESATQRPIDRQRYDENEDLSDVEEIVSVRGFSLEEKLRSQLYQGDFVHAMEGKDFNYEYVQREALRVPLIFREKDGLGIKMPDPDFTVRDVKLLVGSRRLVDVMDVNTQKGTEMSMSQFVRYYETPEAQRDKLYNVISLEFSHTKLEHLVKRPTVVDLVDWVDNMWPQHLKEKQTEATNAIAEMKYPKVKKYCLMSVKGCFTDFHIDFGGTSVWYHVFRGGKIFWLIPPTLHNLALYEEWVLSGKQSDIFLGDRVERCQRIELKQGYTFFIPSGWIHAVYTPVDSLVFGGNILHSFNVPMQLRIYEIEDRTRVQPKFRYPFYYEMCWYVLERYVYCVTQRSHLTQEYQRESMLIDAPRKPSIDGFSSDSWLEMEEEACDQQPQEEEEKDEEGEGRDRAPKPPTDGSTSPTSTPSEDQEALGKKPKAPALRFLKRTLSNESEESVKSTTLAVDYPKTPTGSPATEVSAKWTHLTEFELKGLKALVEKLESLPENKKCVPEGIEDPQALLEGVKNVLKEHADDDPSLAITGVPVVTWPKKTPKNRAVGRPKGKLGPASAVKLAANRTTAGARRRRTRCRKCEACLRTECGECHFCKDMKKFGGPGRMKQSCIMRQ
Method: as §1, §2, §3

JMJD1B (KDM3B) = target: T10, JMJD1B (KDM3B) (Homo sapiens, UniProt Q7LBC6); test: Histone lysine demethylase AlphaLISA assay, JMJD1B; conditions: substrate BK9M2
T10 construct: 842-1761; host or cells: Bac (baculovirus)
T10 sequence (Q7LBC6 842-1761): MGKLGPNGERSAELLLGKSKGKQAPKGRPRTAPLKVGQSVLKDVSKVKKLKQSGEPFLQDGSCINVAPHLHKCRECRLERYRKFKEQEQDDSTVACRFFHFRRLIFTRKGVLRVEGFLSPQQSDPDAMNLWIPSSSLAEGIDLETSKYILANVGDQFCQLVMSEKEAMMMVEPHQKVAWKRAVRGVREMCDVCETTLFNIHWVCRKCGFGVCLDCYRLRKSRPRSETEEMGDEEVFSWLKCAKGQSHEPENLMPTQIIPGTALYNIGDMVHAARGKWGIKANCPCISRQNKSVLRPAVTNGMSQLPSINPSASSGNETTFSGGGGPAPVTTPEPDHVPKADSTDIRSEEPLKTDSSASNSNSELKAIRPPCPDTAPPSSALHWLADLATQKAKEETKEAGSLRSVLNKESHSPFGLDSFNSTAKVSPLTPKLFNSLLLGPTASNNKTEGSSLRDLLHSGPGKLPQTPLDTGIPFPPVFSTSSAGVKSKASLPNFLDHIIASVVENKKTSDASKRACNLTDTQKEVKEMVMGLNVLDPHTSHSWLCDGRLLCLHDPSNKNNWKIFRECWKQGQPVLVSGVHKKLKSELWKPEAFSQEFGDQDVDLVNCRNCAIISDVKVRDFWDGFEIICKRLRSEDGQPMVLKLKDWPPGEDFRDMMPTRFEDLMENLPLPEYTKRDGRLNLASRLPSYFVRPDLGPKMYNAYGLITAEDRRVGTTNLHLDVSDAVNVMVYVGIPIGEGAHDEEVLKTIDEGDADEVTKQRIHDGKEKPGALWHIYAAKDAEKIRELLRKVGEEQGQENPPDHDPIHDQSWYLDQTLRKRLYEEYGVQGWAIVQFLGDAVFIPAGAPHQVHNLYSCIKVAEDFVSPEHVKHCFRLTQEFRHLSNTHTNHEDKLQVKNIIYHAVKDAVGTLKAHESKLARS
Method: as §1, §2, §3

T3 sequence (O15550 919-1401): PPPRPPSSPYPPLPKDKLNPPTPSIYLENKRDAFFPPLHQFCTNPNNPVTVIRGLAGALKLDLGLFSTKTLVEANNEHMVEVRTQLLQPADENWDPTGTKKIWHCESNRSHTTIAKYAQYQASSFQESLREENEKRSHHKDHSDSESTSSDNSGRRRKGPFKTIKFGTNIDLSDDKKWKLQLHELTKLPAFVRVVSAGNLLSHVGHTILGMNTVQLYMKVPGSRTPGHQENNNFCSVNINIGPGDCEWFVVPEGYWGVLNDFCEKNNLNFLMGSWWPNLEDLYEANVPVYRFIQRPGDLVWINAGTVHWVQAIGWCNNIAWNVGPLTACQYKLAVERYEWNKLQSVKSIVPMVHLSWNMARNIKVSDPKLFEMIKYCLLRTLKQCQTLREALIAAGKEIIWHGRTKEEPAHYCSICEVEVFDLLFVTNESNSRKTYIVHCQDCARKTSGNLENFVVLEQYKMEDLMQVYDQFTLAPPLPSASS
T7 sequence (O15054 1043-1682 isoform O15054-1 limits assumed): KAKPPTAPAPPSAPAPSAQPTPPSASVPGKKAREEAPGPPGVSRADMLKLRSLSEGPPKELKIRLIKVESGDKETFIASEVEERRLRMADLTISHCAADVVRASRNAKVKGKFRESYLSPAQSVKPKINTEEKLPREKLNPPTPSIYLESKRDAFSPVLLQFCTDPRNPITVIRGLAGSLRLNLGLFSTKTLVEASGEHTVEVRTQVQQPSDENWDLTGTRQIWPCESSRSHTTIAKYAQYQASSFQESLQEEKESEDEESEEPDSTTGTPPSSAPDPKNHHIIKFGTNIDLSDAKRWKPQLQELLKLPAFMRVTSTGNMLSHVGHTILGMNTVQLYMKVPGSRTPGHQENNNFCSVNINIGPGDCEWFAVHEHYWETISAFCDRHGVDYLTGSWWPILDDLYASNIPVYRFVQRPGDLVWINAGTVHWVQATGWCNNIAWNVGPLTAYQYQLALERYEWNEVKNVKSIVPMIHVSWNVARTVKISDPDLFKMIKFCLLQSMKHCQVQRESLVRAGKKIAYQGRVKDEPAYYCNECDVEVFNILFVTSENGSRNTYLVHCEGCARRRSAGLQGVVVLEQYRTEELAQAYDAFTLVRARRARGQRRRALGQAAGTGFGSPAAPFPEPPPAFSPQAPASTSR
T1 sequence (P41229 2-1560): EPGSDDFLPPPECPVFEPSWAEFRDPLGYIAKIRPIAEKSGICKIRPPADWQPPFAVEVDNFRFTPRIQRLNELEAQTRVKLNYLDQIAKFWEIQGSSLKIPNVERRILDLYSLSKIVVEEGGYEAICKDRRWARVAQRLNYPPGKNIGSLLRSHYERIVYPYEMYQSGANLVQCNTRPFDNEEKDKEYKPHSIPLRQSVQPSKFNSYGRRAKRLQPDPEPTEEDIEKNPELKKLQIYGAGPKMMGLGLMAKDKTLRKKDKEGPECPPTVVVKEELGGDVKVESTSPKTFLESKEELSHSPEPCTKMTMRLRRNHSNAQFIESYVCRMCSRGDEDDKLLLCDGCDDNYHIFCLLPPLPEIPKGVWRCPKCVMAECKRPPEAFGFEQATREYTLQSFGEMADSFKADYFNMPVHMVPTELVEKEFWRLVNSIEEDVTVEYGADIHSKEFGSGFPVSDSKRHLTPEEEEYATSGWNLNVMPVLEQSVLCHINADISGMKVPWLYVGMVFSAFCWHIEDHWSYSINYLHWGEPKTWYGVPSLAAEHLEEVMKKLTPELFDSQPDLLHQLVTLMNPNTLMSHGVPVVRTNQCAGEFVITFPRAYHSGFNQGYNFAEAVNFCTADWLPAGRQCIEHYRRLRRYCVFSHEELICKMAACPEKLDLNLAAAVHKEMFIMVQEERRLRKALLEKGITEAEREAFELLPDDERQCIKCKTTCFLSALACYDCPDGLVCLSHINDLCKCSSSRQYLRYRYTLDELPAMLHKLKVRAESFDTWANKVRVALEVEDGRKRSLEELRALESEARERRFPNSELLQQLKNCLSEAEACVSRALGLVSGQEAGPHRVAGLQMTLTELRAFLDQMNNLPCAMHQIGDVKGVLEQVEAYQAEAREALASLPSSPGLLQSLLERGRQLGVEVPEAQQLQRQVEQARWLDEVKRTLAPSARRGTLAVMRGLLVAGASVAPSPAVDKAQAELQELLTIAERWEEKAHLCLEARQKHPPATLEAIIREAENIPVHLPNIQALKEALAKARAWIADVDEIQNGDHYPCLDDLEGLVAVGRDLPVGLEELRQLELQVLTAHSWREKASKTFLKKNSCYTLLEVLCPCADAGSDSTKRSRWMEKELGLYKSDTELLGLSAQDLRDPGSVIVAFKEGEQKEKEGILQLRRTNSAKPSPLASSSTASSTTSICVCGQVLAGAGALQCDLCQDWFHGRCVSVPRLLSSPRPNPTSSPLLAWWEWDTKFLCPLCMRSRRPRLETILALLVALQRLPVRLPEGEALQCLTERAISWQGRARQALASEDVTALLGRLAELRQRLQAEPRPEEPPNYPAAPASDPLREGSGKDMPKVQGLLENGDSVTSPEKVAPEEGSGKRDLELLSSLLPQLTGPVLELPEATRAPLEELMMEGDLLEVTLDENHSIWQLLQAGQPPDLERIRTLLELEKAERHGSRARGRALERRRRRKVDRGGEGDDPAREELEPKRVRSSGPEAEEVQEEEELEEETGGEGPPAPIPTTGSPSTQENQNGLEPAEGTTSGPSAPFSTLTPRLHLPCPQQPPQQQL
T8 sequence (Q9UPP1 37-477 limits assumed): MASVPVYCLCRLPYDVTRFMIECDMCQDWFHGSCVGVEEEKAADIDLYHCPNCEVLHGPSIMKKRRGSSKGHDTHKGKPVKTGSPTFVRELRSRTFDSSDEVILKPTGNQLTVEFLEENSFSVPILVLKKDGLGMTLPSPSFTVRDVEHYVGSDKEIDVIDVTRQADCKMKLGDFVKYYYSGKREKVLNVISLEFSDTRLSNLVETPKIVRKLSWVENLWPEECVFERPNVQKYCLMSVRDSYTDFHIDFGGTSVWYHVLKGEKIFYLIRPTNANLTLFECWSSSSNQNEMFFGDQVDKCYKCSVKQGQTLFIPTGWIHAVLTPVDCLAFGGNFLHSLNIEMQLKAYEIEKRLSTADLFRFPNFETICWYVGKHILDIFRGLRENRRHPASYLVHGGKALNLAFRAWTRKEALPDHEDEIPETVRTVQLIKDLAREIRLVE

SMILES | pIC50 (JARID1C (KDM5C)) | pIC50 (JMJD2A (KDM4A)) | pIC50 (UTX (KDM6A)) | pIC50 (JMJD2B (KDM4B)) | pIC50 (GASC1 (KDM4C, JMJD2C)) | pIC50 (PLU1 (KDM5B)) | pIC50 (JMJD3 (KDM6B)) | pIC50 (PHF8 (KDM7)) | pIC50 (FBXL10 (KDM2B)) | pIC50 (JMJD1B (KDM3B))
Cn1c(CNCc2cc(C(=O)O)ccn2)nc2ccccc21 [#15, 2-({[(1-methyl-1H-1,3-benzodiazol-2-yl)methyl]amino}methyl)pyridine-4-carboxylic acid] | > 7.00 | > 7.00 | ≤ 6.00 | > 7.00 | 6.00 to 7.00 | > 7.00 | ≤ 6.00 | – | – | –
O=C(O)c1ccnc(CNCCCn2ccnc2)c1 [#1, 2-({[3-(1H-imidazol-1-yl)propyl]amino}methyl)pyridine-4-carboxylic acid] | > 7.00 | > 7.00 | ≤ 6.00 | – | 6.00 to 7.00 | – | ≤ 6.00 | – | ≤ 6.00 | –
CN(C)CCNCc1cc(C(=O)O)ccn1 [#2, 2-({[2-(dimethylamino)ethyl]amino}methyl)pyridine-4-carboxylic acid] | – | > 7.00 | ≤ 6.00 | > 7.00 | > 7.00 | – | ≤ 6.00 | – | – | ≤ 6.00
COc1ccc(CNCc2cc(C(=O)O)ccn2)c(OC)c1 [#11, 2-({[(2,4-dimethoxyphenyl)methyl]amino}methyl)pyridine-4-carboxylic acid] | – | ≤ 6.00 | ≤ 6.00 | ≤ 6.00 | ≤ 6.00 | > 7.00 | ≤ 6.00 | – | – | ≤ 6.00

The remaining lines, values ahead:

pIC50 (JARID1C (KDM5C)) | pIC50 (JMJD2A (KDM4A)) | pIC50 (UTX (KDM6A)) | pIC50 (JMJD2B (KDM4B)) | pIC50 (GASC1 (KDM4C, JMJD2C)) | pIC50 (PLU1 (KDM5B)) | pIC50 (JMJD3 (KDM6B)) | pIC50 (PHF8 (KDM7)) | pIC50 (FBXL10 (KDM2B)) | pIC50 (JMJD1B (KDM3B)) | SMILES
> 7.00 | 6.00 to 7.00 | ≤ 6.00 | > 7.00 | 6.00 to 7.00 | > 7.00 | ≤ 6.00 | ≤ 6.00 | – | – | O=C(O)c1ccnc(CNCCCN2CCCC2)c1 [#46, 2-({[3-(pyrrolidin-1-yl)propyl]amino}methyl)pyridine-4-carboxylic acid]
> 7.00 | ≤ 6.00 | ≤ 6.00 | > 7.00 | > 7.00 | > 7.00 | ≤ 6.00 | ≤ 6.00 | – | – | CCN(CC)CCCCNCc1cc(C(=O)O)ccn1 [#48, 2-({[4-(diethylamino)butyl]amino}methyl)pyridine-4-carboxylic acid]
